In US10899988B1, “Octane hyperboosting in fuel blends” (National Technology & Engineering Solutions of Sandia, LLC, priority 2018, dated 2021):
Each block holds one molecule with its values, some of them ahead of it.

Experiments:
[1] = Co-optima fuel property database, cited from earlier work; for Water Solubility: measured at 25° C.
[2] = ASTM D3703 test for hydroperoxides (peroxide number); assay type: physicochemical; conditions: silica column processed sample; testing range 0-50 mg/kg
Experimental: Potential polar contaminants, such as peroxides and hydrates, were removed from the neat prenol sample using a silica column following the protocol outlined by Mueller et al. (see, e.g., Mueller C J et al., “Diesel surrogate fuels for engine testing and chemical-kinetic modeling: compositions and properties,” Energy Fuels 2016; 30:1445-61). RON testing of this sample was conducted to confirm that these contaminants were not affecting the RON measurement. The sample containers were stored at 85% capacity and sealed with parafilm to limit peroxide formation after the silica column treatment; testing was performed within 10 days of the treatment. The peroxide number of the silica column treated sample (sample processed as described above) was tested by the ASTM […] method at SwRI. This method quantified the concentration hydroperoxides in a sample within the range of 0-50 mg/kg (ppm).

Molecule: O=C1CCCC1 [Cyclopentanone]
- DH Vap [1]: 504 kJ/kg
- Energy Density [1]: 30.2 mJ/L
- Water Solubility [1]: 61 mg/mL

Molecule: CCO [Ethanol]
- DH Vap [1]: 919 kJ/kg
- Energy Density [1]: 20.2 mJ/L

- hydroperoxides (ASTM D3703) [2]: non-detect
Molecule: CC(C)=CCO [Prenol, 3-methyl-2-buten-1-ol]
- DH Vap [1]: 512 kJ/kg
- Water Solubility [1]: 41 mg/mL

Molecule: CC(C)O [Isopropanol]
- DH Vap [1]: 744 kJ/kg
- Energy Density [1]: 24.1 mJ/L

Molecule: n-propanol
- DH Vap [1]: 789 kJ/kg
- Energy Density [1]: 24.7 mJ/L

Molecule: CC(C)CO [Isobutanol]
- DH Vap [1]: 685 kJ/kg
- Energy Density [1]: 26.6 mJ/L
